Starred links: 1 amine or outer side, 2 acyl side, 3 side chain; linkers in the order of their positions; H or OH if unused. Residues, ends and D or L forms follow the SMILES beside them. *: point of attachment. C18 diacid = O=C(O)CCCCCCCCCCCCCCCCC(=O)*; γGlu = O=C(O)[C@H](CCC(=O)[*:2])N[*:1]
Key:
[1] = biological target: T1, human amylin receptor (hAMYR3) (Homo sapiens, UniProt O60896+P30988); assay: Human amylin receptor (hAMYR3) in vitro potency assay, CRE-luciferase reporter in BHK cells; assay type: cell-based; conditions: BHK hAMYR3/CRE-Luc cells, 3 hours incubation, assay buffer with 1% ovalbumin
T1 construct: host or cells: BHK (Baby Hamster Kidney), Hollex-1 cell line further transfected with RAMP3
In short: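 Luminescence from a CRE-driven luciferase reporter reflects cAMP-mediated receptor activation. Peptides were serially diluted (7 concentrations, 7-fold steps, typically starting near 10 nM) in buffer with 1% ovalbumin and applied for 3 h at 37 °C to BHK cells co-expressing calcitonin receptor (a) and RAMP3.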

[2] = biological target: T2, human calcitonin receptor (hCTR) (Homo sapiens, UniProt P30988); assay: Human calcitonin receptor (hCTR) in vitro potency assay, CRE-luciferase reporter in BHK cells; assay type: cell-based; conditions: BHK hCTR/CRE-Luc cells, 3 hours incubation, assay buffer with 1% ovalbumin; read-out: hCalcR potency, EC50
T2 construct: host or cells: BHK (Baby Hamster Kidney), Hollex-1 cell line
T2 sequence (P30988 25-474): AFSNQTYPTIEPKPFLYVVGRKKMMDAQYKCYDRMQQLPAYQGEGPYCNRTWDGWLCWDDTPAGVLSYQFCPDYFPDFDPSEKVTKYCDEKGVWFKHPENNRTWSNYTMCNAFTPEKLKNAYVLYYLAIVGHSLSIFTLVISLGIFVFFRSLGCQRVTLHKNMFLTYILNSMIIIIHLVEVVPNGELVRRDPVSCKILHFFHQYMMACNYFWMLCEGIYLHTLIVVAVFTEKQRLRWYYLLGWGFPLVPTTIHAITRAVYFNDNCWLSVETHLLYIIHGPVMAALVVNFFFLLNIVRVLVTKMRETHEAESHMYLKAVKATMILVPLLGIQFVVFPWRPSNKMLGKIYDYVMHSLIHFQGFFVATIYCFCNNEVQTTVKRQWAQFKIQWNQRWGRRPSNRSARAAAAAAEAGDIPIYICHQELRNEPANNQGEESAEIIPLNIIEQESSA
In short: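 Luciferase signal from a CRE reporter served as the cAMP read-out after 3 h, 37 °C exposure to compound. Cells were stably transfected BHK expressing hCTR, and the buffer was phenol-red-free DMEM with 10 mM HEPES and 1% ovalbumin. Compounds were tested as 7-point, 7-fold dilutions, often from about 10 nM.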

T1 sequence (O60896 24-148, one chain of several): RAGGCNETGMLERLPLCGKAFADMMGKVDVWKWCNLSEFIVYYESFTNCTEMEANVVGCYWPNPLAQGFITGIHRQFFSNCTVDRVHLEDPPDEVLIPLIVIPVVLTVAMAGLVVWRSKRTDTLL

Row | Compound | EC50 [1] | EC50 [2]
1 | CC[C@H](C)[C@H](NC(=O)[C@H](C)NC(=O)CNC(=O)[C@H](Cc1ccccc1)NC(=O)[C@@H]1CCCN1C(=O)[C@H](CCC(=O)O)NC(=O)[C@H](CO)NC(=O)[C@H](CO)NC(=O)[C@H](Cc1c[nH]cn1)NC(=O)[C@H](Cc1c[nH]cn1)NC(=O)[C@H](CC(C)C)NC(=O)[C@H](Cc1ccccc1)NC(=O)[C@H](CCC(=O)O)NC(=O)[C@H](C)NC(=O)[C@H](CC(C)C)NC(=O)[C@H](CCCNC(=N)N)NC(=O)[C@H](CCC(N)=O)NC(=O)[C@@H](NC(=O)[C@H](CCC(N)=O)NC(=O)[C@H](C)NC(=O)[C@@H](NC(=O)[C@H](CO)NC(=O)[C@H](CC(C)C)NC(=O)[C@H](Cc1c[nH]cn1)NC(=O)[C@H](CO)NC(=O)[C@H](C)NC(=O)CC[C@H](NC(=O)CCCCCCCCCCCCCCCCC(=O)O)C(=O)O)[C@@H](C)O)[C@@H](C)O)C(=O)N1CCC[C@H]1C(=O)N[C@@H](CO)C(=O)N[C@@H](CO)C(=O)N[C@H](C(=O)N[C@@H](CCC(=O)O)C(=O)N[C@H](C(=O)NCC(=O)N1CCC[C@H]1C(=O)N[C@@H](CCC(=O)O)C(=O)N[C@H](C(=O)N1CCC[C@H]1C(N)=O)[C@@H](C)O)C(C)C)[C@@H](C)O [Compound 27, N^1-[(4S)-4-carboxy-4-(17-carboxyheptadecanoylamino)butanoyl]-[Ala1,Ser2,His3,Leu4,Ser5,Ala7,Gln8,Glu14,His17,Glu21,Pro22,Pro27,Glu31,Pro34,Glu35,Pro37]-human amylin] ({C18 diacid-γGlu}-ASHLSTAQTQRLAEFLHHSSEPFGAIPSSTEVGPETP-NH2) | 2.68 pM | 1.78 pM
2 | CC[C@H](C)[C@H](NC(=O)[C@@H]1CCCN1C(=O)CNC(=O)[C@H](Cc1ccccc1)NC(=O)[C@H](Cc1c[nH]cn1)NC(=O)[C@H](Cc1c[nH]cn1)NC(=O)[C@H](CC(C)C)NC(=O)[C@H](Cc1ccccc1)NC(=O)[C@H](CCC(=O)O)NC(=O)[C@H](C)NC(=O)[C@H](CC(C)C)NC(=O)[C@H](CCCNC(=N)N)NC(=O)[C@H](CCC(N)=O)NC(=O)[C@@H](NC(=O)[C@H](CCC(N)=O)NC(=O)[C@H](C)NC(=O)[C@@H](NC(=O)[C@H](CO)NC(=O)[C@H](CC(C)C)NC(=O)[C@H](Cc1c[nH]cn1)NC(=O)[C@H](CO)NC(=O)[C@H](C)NC(=O)CC[C@H](NC(=O)CCCCCCCCCCCCCCCCC(=O)O)C(=O)O)[C@@H](C)O)[C@@H](C)O)C(=O)N[C@@H](CC(C)C)C(=O)N1CCC[C@H]1C(=O)N1CCC[C@H]1C(=O)N[C@H](C(=O)N[C@@H](CC(=O)O)C(=O)N[C@H](C(=O)NCC(=O)N[C@@H](CO)C(=O)N[C@@H](CCC(=O)O)C(=O)N[C@H](C(=O)N1CCC[C@H]1C(N)=O)[C@@H](C)O)C(C)C)[C@@H](C)O [Compound 28, N^1-[(4S)-4-carboxy-4-(17-carboxyheptadecanoylamino)butanoyl]-[Ala1,Ser2,His3,Leu4,Ser5,Ala7,Gln8,Glu14,His17,Pro25,Pro28,Pro29,Asp31,Glu35,Pro37],des-(19-22)-human amylin] ({C18 diacid-γGlu}-ASHLSTAQTQRLAEFLHHFGPILPPTDVGSETP-NH2) | 2.06 pM | 1.72 pM
3 | CC[C@H](C)[C@H](NC(=O)[C@@H]1CCCN1C(=O)CNC(=O)[C@H](Cc1ccccc1)NC(=O)[C@H](Cc1c[nH]cn1)NC(=O)[C@H](Cc1c[nH]cn1)NC(=O)[C@H](CC(C)C)NC(=O)[C@H](Cc1ccccc1)NC(=O)[C@H](CCC(=O)O)NC(=O)[C@H](C)NC(=O)[C@H](CC(C)C)NC(=O)[C@H](CCCNC(=N)N)NC(=O)[C@H](CCC(N)=O)NC(=O)[C@@H](NC(=O)[C@H](CCC(N)=O)NC(=O)[C@H](C)NC(=O)[C@@H](NC(=O)[C@H](CO)NC(=O)[C@H](CC(C)C)NC(=O)[C@H](CCC(=O)O)NC(=O)[C@H](CO)NC(=O)[C@H](C)NC(=O)CC[C@H](NC(=O)CCCCCCCCCCCCCCCCC(=O)O)C(=O)O)[C@@H](C)O)[C@@H](C)O)C(=O)N[C@@H](CC(C)C)C(=O)N1CCC[C@H]1C(=O)N1CCC[C@H]1C(=O)N[C@H](C(=O)N[C@@H](CC(=O)O)C(=O)N[C@H](C(=O)NCC(=O)N[C@@H](CO)C(=O)N[C@@H](CCC(=O)O)C(=O)N[C@H](C(=O)N1CCC[C@H]1C(N)=O)[C@@H](C)O)C(C)C)[C@@H](C)O [Compound 29, N^1-[(4S)-4-carboxy-4-(17-carboxyheptadecanoylamino)butanoyl]-[Ala1,Ser2,Glu3,Leu4,Ser5,Ala7,Gln8,Glu14,His17,Pro25,Pro28,Pro29,Asp31,Glu35,Pro37],des-(19-22)-human amylin] ({C18 diacid-γGlu}-ASELSTAQTQRLAEFLHHFGPILPPTDVGSETP-NH2) | 5.2 pM | 3.08 pM
4 | CC[C@H](C)[C@H](NC(=O)[C@@H]1CCCN1C(=O)CNC(=O)[C@H](Cc1ccccc1)NC(=O)[C@H](Cc1c[nH]cn1)NC(=O)[C@H](Cc1c[nH]cn1)NC(=O)[C@H](CC(C)C)NC(=O)[C@H](Cc1ccccc1)NC(=O)[C@H](CCC(=O)O)NC(=O)[C@H](C)NC(=O)[C@H](CC(C)C)NC(=O)[C@H](CCCNC(=N)N)NC(=O)[C@H](CCC(N)=O)NC(=O)[C@@H](NC(=O)[C@H](CCC(N)=O)NC(=O)[C@H](C)NC(=O)[C@@H](NC(=O)[C@H](CO)NC(=O)[C@H](CC(C)C)NC(=O)[C@H](CO)NC(=O)CNC(=O)[C@H](C)NC(=O)CC[C@H](NC(=O)CC[C@H](NC(=O)CCCCCCCCCCCCCCCCC(=O)O)C(=O)O)C(=O)O)[C@@H](C)O)[C@@H](C)O)C(=O)N[C@@H](CC(C)C)C(=O)N1CCC[C@H]1C(=O)N1CCC[C@H]1C(=O)N[C@H](C(=O)N[C@@H](CC(=O)O)C(=O)N[C@H](C(=O)NCC(=O)N[C@@H](CO)C(=O)N[C@@H](CCC(=O)O)C(=O)N[C@H](C(=O)N1CCC[C@H]1C(N)=O)[C@@H](C)O)C(C)C)[C@@H](C)O [Compound 30, N^1-[(4S)-4-carboxy-4-[[(4S)-4-carboxy-4-(17-carboxyheptadecanoylamino)butanoyl]amino]butanoyl]-[Ala1,Gly2,Ser3,Leu4,Ser5,Ala7,Gln8,Glu14,His17,Pro25,Pro28,Pro29,Asp31,Glu35,Pro37],des-(19-22)-human amylin] ({C18 diacid-γGlu-γGlu}-AGSLSTAQTQRLAEFLHHFGPILPPTDVGSETP-NH2) | 2.37 pM | 2.07 pM
5 | CC[C@H](C)[C@H](NC(=O)[C@@H]1CCCN1C(=O)CNC(=O)[C@H](Cc1ccccc1)NC(=O)[C@H](Cc1c[nH]cn1)NC(=O)[C@H](Cc1c[nH]cn1)NC(=O)[C@H](CC(C)C)NC(=O)[C@H](Cc1ccccc1)NC(=O)[C@H](CCC(=O)O)NC(=O)[C@H](C)NC(=O)[C@H](CC(C)C)NC(=O)[C@H](CCCNC(=N)N)NC(=O)[C@H](CCC(N)=O)NC(=O)[C@@H](NC(=O)[C@H](CCC(N)=O)NC(=O)[C@H](C)NC(=O)[C@@H](NC(=O)[C@H](CO)NC(=O)[C@H](CC(C)C)NC(=O)[C@H](Cc1c[nH]cn1)NC(=O)[C@H](CO)NC(=O)[C@H](C)NC(=O)CC[C@H](NC(=O)CC[C@H](NC(=O)CCCCCCCCCCCCCCCCC(=O)O)C(=O)O)C(=O)O)[C@@H](C)O)[C@@H](C)O)C(=O)N[C@@H](CC(C)C)C(=O)N1CCC[C@H]1C(=O)N1CCC[C@H]1C(=O)N[C@H](C(=O)N[C@@H](CC(=O)O)C(=O)N[C@H](C(=O)NCC(=O)N[C@@H](CO)C(=O)N[C@@H](CCC(=O)O)C(=O)N[C@H](C(=O)N1CCC[C@H]1C(N)=O)[C@@H](C)O)C(C)C)[C@@H](C)O [Compound 31, N^1-[(4S)-4-carboxy-4-[[(4S)-4-carboxy-4-(17-carboxyheptadecanoylamino)butanoyl]amino]butanoyl]-[Ala1,Ser2,His3,Leu4,Ser5,Ala7,Gln8,Glu14,His17,Pro25,Pro28,Pro29,Asp31,Glu35,Pro37],des-(19-22)-human amylin] ({C18 diacid-γGlu-γGlu}-ASHLSTAQTQRLAEFLHHFGPILPPTDVGSETP-NH2) | 2.03 pM | 2.13 pM

Reference: patent US12116388B2, “Amylin receptor agonists” (Novo Nordisk A/S, priority 2022, dated 2024)
